What all share (format): physicochemical
Data set [1] in a line: Assessment of coloration of deodorant or antiperspirant formulations containing perfuming ingredients with or without Haloscent D. Further details: key: CO: color; COYE: yelow color; VSCOYE: very slight yellow color; SCOYE: slight yellow color; VCOYE: very yellow color; NC: no color; DECO: decoloration; CL: cloud; VCL: very cloud; WH: white; VCOBR: very brown color; COPI: ping color. The conditions noted are these: perfuming ingredient 0.5 wt %, after 15 days. On the procedure: (§1) Preparation of an Antiperspirant Spray Formulation: Using a high speed stirrer, Silica (Table 1) and Quaternium-18-Hectorite (Table 1) were added to the Isopropyl miristate (Table 1) and Cyclomethicone mixture (Table 1). Once completely swollen, Aluminium Chlorohydrate (Table 1) was added portion wise under stirring until the mixture was homogeneous and without lumps. The aerosol cans were filled with 25% Suspension of the suspension and 75% of Propane/Butane (2.5 bar).
(§2) Preparation of Deodorant Spray Formulation: All the ingredients according to the sequence of the Table 2 were mixed and dissolved. Then the aerosol cans were filled, crimp and add the propellant (Aerosol filling: 40% active solution 60% Propane/Butane 2.5 bar).
(§3) Part A was prepared by sprinkling little by little the Hydroxyethylcellulose (Table 3) in the water (Table 3) whilst rapidly stirring with the turbine. Stirring was continued until the Hydroxyethylcellulose had entirely swollen and giving a limpid gel. Then, Part B (Table 3) was poured little by little in Part A whilst continuing stirring until the whole was homogeneous. Part C was added (Table 3).
(§4) Preparation of a Deodorant Stick Formulation: All the components of Part A were weighted (Table 4) and heated up to 70-75° C. Ceteareth-25 (Table 4) was added once the other Part A ingredients were mixed and heated. Once the Ceteareth-25 was dissolved, the Stearic Acid was added. Part B was prepared by dissolving the Triclosan (Table 4) in 1,2 Propylene Glycol (Table 4). Water which has evaporated was added. Slowly under mixing, Part B was poured into part A. To stock, a plastic bag into the bucket was put in to be sealed after cooling. Moulds was filled at about 70° C.
(§5) Preparation of an Antiperspirant Stick Formulation: All the components of Part A were weighted (Table 5), heated up to 70-75° C. and mixed well. Ingredient of Part B was dispersed in Part A. The mixture was mixed and putted into a tick at 65° C.
(§6) Assessment of Coloration in the Perfuming Ingredients: To set of deodorant or antiperspirant formulations of point a) to e) has been prepared. A perfuming ingredient (0.5 wt %—Table 6, 7 and 8) was added to the first set a and a perfuming ingredient (0.5 wt %—Table 6, 7 and 8) and Haloscent® D (0.5 wt %) were added to the second set. All these formulations were placed at 3° C. and 45° C. for several weeks. All formulations were evaluated in comparison with unperfumed deodorant or antiperspirant formulation. The coloration of each formulation was assessed by a minimum of 2 panelists.

Experiment in data set [2]: as above
Set-up: key to Coloration of antiperspirant stick: CO: color; COYE: yelow color; VSCOYE: very slight yellow color; SCOYE: slight yellow color; VCOYE: very yellow color; NC: no color; DECO: decoloration; CL: cloud; VCL: very cloud; WH: white; VCOBR: very brown color; COPI: ping color. The conditions noted are these: perfuming ingredient 0.5 wt %; for Coloration of antiperspirant stick: after 7 days. On the procedure: as §1, §2, §3, §4, §5, §6

Experiment in data set [3]: as above
Further details: key: CO: color; COYE: yellow color; SCOYE: slight yellow color; VCOYE: very yellow color; NC: no color; DECO: discoloration; CL: cloud; VCL: very cloud; WH: white; VCOBR: very brown color; COPI: ping color. The conditions noted are these: perfuming ingredient 0.5 wt %, after 15 days. On the procedure:
as §1, §2, §3, §4, §5, §6

The mark [4] stands for this setting: DEO ROLL-ON + Haloscent D 0.5 wt %, 3° C.
[5] abbreviates: DEO ROLL-ON + Haloscent D 0.5 wt %, 45° C.
[6] abbreviates: DEO STICK + Haloscent D 0.5 wt %, 3° C.
[7] abbreviates: DEO STICK + Haloscent D 0.5 wt %, 45° C.
Setting [8] is: AP Stick + Haloscent D 0.5 wt %, 3° C.
[9] abbreviates: AP Stick + Haloscent D 0.5 wt %, 45° C.
The mark [10] stands for this setting: AP SPRAY + Haloscent D 0.5 wt %, 3° C.
The mark [11] stands for this setting: AP SPRAY + Haloscent D 0.5 wt %, 45° C.
The mark [12] stands for this setting: DEO SPRAY + Haloscent D 0.5 wt %, 3° C.
The mark [13] stands for this setting: DEO SPRAY + Haloscent D 0.5 wt %, 45° C.

Turning to “1-(3,3-dimethyl-1-cyclohexen-1-yl)-4-penten-1-one (A) + 1-(5,5-dimethyl-1-cyclohexen-1-yl)-4-penten-1-one (B) [DYNASCONE]”, the “Coloration of deodorant roll-on” value in data set [1] (setting [4]) is “WH”; in data set [1] (setting [5]), “SCOYE”; in data set [1] (DEO ROLL-ON, 3° C.), “VCL”; in data set [1] (DEO ROLL-ON, 45° C.) it was “NC”. Moreover, the “Coloration of deodorant stick” value is “SCOYE” in data set [1] (setting [6]); “VCOYE” in data set [1] (setting [7]); “NC” in data set [1] (DEO STICK, 3° C.); “VCOYE” in data set [1] (DEO STICK, 45° C.).

Regarding `CCCCCOC(=O)c1ccccc1O` [AMYLE SALICYLATE, PENTYL 2-HYDROXYBENZOATE], the “Coloration of antiperspirant stick” value was “VSCOPI” in data set [2] (setting [8]); “VSCOPI” in data set [2] (setting [9]); “VSCOPI” in data set [2] (AP Stick, 3° C.); “NC” in data set [2] (AP Stick, 45° C.). The “Coloration of deodorant roll-on” value was “WH” in data set [1] (setting [4]); “VCL” in data set [1] (setting [5]); “VCL” in data set [1] (DEO ROLL-ON, 3° C.); “NC” in data set [1] (DEO ROLL-ON, 45° C.). In addition, the “Coloration of deodorant stick” value in data set [1] (setting [6]) is on record as “NC”; in data set [1] (setting [7]), “NC”; in data set [1] (DEO STICK, 3° C.), “NC”; in data set [1] (DEO STICK, 45° C.) it was “NC”.

Take `c1ccc2[nH]ccc2c1` [2,3-BENZOPYRROLE]: the “Coloration of antiperspirant stick” value was “COPI” in data set [2] (setting [8]); “VSCOYE” in data set [2] (setting [9]); “DECO” in data set [2] (AP Stick, 3° C.); “VSCOYE” in data set [2] (AP Stick, 45° C.). For the same molecule, the “Coloration of deodorant roll-on” value in data set [2] (DEO ROLL-ON + Haloscent D 0.5 wt %, 45° C., after 15 days) is “VSCOYE”; in data set [1] (setting [4]), “NC”; in data set [1] (DEO ROLL-ON, 3° C.), “NC”; in data set [1] (DEO ROLL-ON, 45° C.), “NC”. Further, the “Coloration of deodorant stick” value is “NC” in data set [1] (setting [6]); “NC” in data set [1] (setting [7]); “NC” in data set [1] (DEO STICK, 3° C.); “SCOYE” in data set [1] (DEO STICK, 45° C.).

For the molecule `CC(C)=CCCC(C)CCO` (racemic) [(+−)-3,7-DIMETHYL-6-OCTEN-1-OL], the “Coloration of antiperspirant stick” value is “VSCOYE” in data set [2] (setting [8]); “VSCOYE” in data set [2] (setting [9]); “DECO” in data set [2] (AP Stick, 3° C.); “DECO” in data set [2] (AP Stick, 45° C.). Also, the “Coloration of antiperspirant spray” value in data set [1] (setting [10]) is “SCOYE”; in data set [1] (setting [11]), “SCOYE”; in data set [1] (AP SPRAY, 3° C.), “NC”; in data set [1] (AP SPRAY, 45° C.), “NC”. In addition, the “Coloration of deodorant roll-on” value in data set [1] (setting [4]) is given as “NC”; in data set [1] (setting [5]) it was “NC”; in data set [1] (DEO ROLL-ON, 3° C.), “NC”; in data set [1] (DEO ROLL-ON, 45° C.) it was “NC”. The “Coloration of deodorant spray” value in data set [1] (setting [12]) is on record as “NC”; in data set [1] (setting [13]) it was “NC”; in data set [1] (DEO SPRAY, 3° C.), “NC”; in data set [1] (DEO SPRAY, 45° C.), “NC”. The “Coloration of deodorant stick” value is “SCOYE” in data set [1] (setting [6]); “NC” in data set [1] (setting [7]); “NC” in data set [1] (DEO STICK, 3° C.); “NC” in data set [1] (DEO STICK, 45° C.).

Regarding “(+−)-(4E)-3-METHYL-4-CYCLOPENTADECEN-1-ONE (A) + (+−)-(5E)-3-METHYL-5-CYCLOPENTADECEN-1-ONE (B) + (+−)-(5Z)-3-METHYL-5-CYCLOPENTADECEN-1-ONE (C) [MUSCENONE DELTA]”, the “Coloration of antiperspirant spray” value in data set [1] (AP SPRAY, 3° C.) is “NC”; in data set [1] (AP SPRAY, 45° C.), “NC”; in data set [3] (setting [10]), “COYE”; in data set [3] (setting [11]), “COYE”. For the same molecule, the “Coloration of deodorant roll-on” value is recorded as “WH” in data set [1] (setting [4]); “VCL” in data set [1] (DEO ROLL-ON, 3° C.); “SCOYE” in data set [1] (DEO ROLL-ON, 45° C.); “COYE” in data set [3] (setting [5]). The “Coloration of deodorant spray” value in data set [1] (setting [12]) was “NC”; in data set [1] (setting [13]), “NC”; in data set [1] (DEO SPRAY, 3° C.), “NC”; in data set [1] (DEO SPRAY, 45° C.), “NC”. Besides, the “Coloration of deodorant stick” value in data set [1] (setting [6]) is on record as “NC”; in data set [1] (setting [7]), “NC”; in data set [1] (DEO STICK, 3° C.), “NC”; in data set [1] (DEO STICK, 45° C.) it was “NC”.

For the molecule `C=C(CC)CCCC(C)(C)O` [2-METHYL-6-METHYLIDENEOCTAN-2-OL], the “Coloration of deodorant roll-on” value is listed as “NC” in data set [1] (setting [4]); “NC” in data set [1] (setting [5]); “NC” in data set [1] (DEO ROLL-ON, 3° C.); “NC” in data set [1] (DEO ROLL-ON, 45° C.). Further, the “Coloration of deodorant stick” value in data set [1] (setting [6]) is given as “SCOYE”; in data set [1] (setting [7]) it was “NC”; in data set [1] (DEO STICK, 3° C.), “NC”; in data set [1] (DEO STICK, 45° C.), “NC”.

As for `CC(C)c1ccc2c(c1)OCC(=O)CO2` [CALONE, 7-ISOPROPYL-2H,4H-1,5-BENZODIOXEPIN-3-ONE], the “Coloration of antiperspirant spray” value in data set [1] (AP SPRAY, 45° C.) is on record as “SCOYE”; in data set [3] (setting [10]), “COYE”; in data set [3] (setting [11]), “COYE”; in data set [3] (AP SPRAY, 3° C.), “COYE”. Also, the “Coloration of deodorant roll-on” value is “NC” in data set [1] (setting [4]); “CO” in data set [1] (setting [5]); “NC” in data set [1] (DEO ROLL-ON, 3° C.); “DECO” in data set [3] (DEO ROLL-ON, 45° C.). Also, the “Coloration of deodorant spray” value is listed as “CO” in data set [1] (setting [12]); “CO” in data set [1] (setting [13]); “CO” in data set [1] (DEO SPRAY, 3° C.); “CO” in data set [1] (DEO SPRAY, 45° C.). The “Coloration of deodorant stick” value in data set [1] (setting [6]) is reported as “COPI”; in data set [1] (setting [7]), “VCOBR”; in data set [1] (DEO STICK, 3° C.), “COPI”; in data set [1] (DEO STICK, 45° C.), “VCOBR”.
